The values below come from patent US20060134693A1, “Olfactory cyclic nucleotide-gated channel cell-based assays to identify T1R and T2R taste modulators” (priority 2001, published 2006).

Assay [1] concerns Parental CNG cells lacking the human sweet GPCR. Nature of the assay: Control Parental CNG cells lacking the human sweet GPCR, FLIPR384 response. Format: cell-based. The note with it: 5 mM Aspartame, average of 2. The protocol:
(§1) Methods: […] This cell line was derived from HEK293 cells. CNG136 was tested with several sweet receptor agonists and modulators including, Compound 6542888, Compound 3069733, and Aspartame. Response to 10 uM of 6542888 and 3069733 and 5 mM Aspartame was measured using a FLIPR384 instrument (Molecular Devices) and is reported in Table I below. Data were normalized to the maximum activity obtained with a saturating concentration of Aspartame (5 mM). Compounds were also tested on control (“Parental CNG”) cells lacking the human sweet GPCR.

In assay [2] the target is T1, human sweet receptor hT1R2/hT1R3 (Homo sapiens, UniProt Q7RTX0+Q8TE23).
T1 construct: host or cells: human embryonic kidney cells (earlier application U.S. Ser. No. 10/770,127)
T1 sequence (Q8TE23 20-839): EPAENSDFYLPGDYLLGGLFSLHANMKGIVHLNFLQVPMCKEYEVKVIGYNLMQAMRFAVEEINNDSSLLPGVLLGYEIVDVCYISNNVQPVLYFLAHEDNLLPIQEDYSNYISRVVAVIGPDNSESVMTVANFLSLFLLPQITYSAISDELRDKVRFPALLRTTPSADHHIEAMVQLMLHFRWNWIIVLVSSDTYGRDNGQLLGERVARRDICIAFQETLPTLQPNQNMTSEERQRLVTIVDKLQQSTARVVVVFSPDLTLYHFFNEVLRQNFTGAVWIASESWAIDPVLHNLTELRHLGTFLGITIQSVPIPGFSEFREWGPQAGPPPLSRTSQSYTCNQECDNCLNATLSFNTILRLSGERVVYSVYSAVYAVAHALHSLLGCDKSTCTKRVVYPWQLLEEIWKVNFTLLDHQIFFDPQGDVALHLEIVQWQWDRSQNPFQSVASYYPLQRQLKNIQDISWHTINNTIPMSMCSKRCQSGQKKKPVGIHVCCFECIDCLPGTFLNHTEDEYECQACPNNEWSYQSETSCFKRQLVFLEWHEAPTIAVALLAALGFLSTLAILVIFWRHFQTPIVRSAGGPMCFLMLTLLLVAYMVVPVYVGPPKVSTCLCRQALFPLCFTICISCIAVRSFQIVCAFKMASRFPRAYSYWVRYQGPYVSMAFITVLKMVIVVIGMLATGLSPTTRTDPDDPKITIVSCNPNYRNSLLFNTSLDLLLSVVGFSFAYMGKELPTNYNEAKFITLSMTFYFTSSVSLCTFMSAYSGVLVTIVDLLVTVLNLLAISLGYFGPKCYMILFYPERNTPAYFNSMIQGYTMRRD
T1 sequence (Q7RTX0 21-852): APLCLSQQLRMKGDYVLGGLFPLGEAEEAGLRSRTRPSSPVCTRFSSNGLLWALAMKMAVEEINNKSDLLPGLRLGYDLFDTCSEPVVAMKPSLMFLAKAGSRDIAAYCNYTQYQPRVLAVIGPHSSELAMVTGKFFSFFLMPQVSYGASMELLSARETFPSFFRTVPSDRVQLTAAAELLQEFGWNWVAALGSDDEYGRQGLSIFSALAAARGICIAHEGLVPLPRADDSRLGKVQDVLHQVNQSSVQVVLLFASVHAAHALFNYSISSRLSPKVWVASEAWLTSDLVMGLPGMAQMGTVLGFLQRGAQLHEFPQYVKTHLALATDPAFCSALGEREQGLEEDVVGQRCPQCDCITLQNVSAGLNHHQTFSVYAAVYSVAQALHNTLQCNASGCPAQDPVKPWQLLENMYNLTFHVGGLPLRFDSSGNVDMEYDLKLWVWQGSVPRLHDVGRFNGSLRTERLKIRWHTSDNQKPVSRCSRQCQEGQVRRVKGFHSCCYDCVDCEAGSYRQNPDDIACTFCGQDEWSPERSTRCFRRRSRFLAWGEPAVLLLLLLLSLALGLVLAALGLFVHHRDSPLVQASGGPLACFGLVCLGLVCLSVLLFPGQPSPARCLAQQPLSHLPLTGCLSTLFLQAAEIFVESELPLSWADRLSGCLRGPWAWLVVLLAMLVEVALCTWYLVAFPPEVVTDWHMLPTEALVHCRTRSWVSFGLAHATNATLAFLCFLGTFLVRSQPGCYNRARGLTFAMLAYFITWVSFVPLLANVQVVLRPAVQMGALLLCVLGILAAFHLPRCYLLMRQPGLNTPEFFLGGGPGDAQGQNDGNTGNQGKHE
Nature of the assay: Isoproterenol-induced calcium influx in HEK-293-oCNGC cells expressing hT1R2/hT1R3. To be noted: PTX 100 ng/ml for 4 hours; 200 nM isoproterenol; 5 mM Aspartame, 2 mM Cyclamate, 4 mM Saccharin, 0.1 mM Neotame; FIG. 15. In kind it is cell-based. The protocol:
FIG. 13 contains the result of an experiment showing that increasing concentrations of sweeteners inhibit the isoproterenol-induced-calcium influx in HEK 293-oCNGC cells expressing the human sweet receptor hT1R2/hT1R3. Delta F/F values were normalized to the fluorescence obtained after stimulation with 200 nM isoproterenol. Each value corresponds to the mean ± SD of a triplicate determination.
Cells were left untreated (control) or treated with PTX for 4 hours at 100 ng/ml prior to the experiment. Cells were then stimulated with 200 nM isoproterenol in the presence or absence of the indicated sweeteners (5 mM Aspartame, 2 mM Cyclamate, 4 mM Saccharin and 0.1 mM Neotame).
(§2) Modulation of oCNG activity by taste receptors is measured in a cell-based assay that detects changes in intracellular calcium (as described in earlier examples). In brief, human embryonic kidney cells stably expressing the OCNC1 and are β1b subunits of oCNGC are transiently or stably transfected with T1R or T2R receptor plasmids. Transfected cells are seeded into 384-well culture plates, and functional expression is allowed to proceed for about 24 to 48 hours. The cells are then incubated with a calcium specific fluorescent dye (Fluo-4 or Fura-2, available from Molecular Probes) that provides for fast, simple and reliable fluorimetric detection of changes in calcium concentration within the cell.
An experiment was conducted to assess the effect of various sweeteners (known to activate the human T1R2/T1R3 sweet receptor) on isoproterenol-induced calcium influx in HEK-293—oCNGC cells that express the human T1R2/T1R3 sweet receptor. As shown by the results in FIG. 13, increasing concentrations of sweetener inhibits isoproterenol-induced calcium influx in these cells. (In the figure, Delta F/F values were normalized to the fluorescence obtained after stimulation with 200 nM isoproterenol and each value corresponds to the means ± SD of a triplicate determination). […]

Assay [3] concerns untransfected HEK 293-oCNGC cells. Nature of the assay: Isoproterenol-induced calcium influx in untransfected HEK 293-oCNGC cells. To be noted: cells not expressing hT1R2/hT1R3; increasing concentrations; 200 nM isoproterenol; FIG. 14. In kind it is cell-based, human. The method, then: Delta F/F valves were normalized to the fluorescence obtained after stimulation with 200 nM isoproterenol. Each value corresponds to the mean ± SD of a triplicate determination.
as §2
An experiment was conducted to confirm that the effects of the sweeteners on calcium influx requires the expression of the sweet receptor.
In FIG. 14, it is shown that increasing concentrations of the tested sweeteners had no inhibitory effect on isoproterenol-induced calcium influx in untransfected HEK 293—oCNGC cells. Again, Delta F/F values were normalized to the fluorescence obtained after stimulation with 200 nM isoproternol and each value component to the mean ± SD of a triplicate determination).

The target of assay [4] is T2, human T1R2/T1R3 sweet taste GPCR (Homo sapiens, UniProt Q7RTX0+Q8TE23).
T2 construct: expressed in transfected cells; host or cells: CNG136, derived from HEK293
T2 sequence (Q8TE23 20-839): T1 sequence (Q8TE23 20-839)
T2 sequence (Q7RTX0 21-852): T1 sequence (Q7RTX0 21-852)
Nature of the assay: CNG136 cell line (HEK293-derived, co-expressing human CNG channel and human T1R2/T1R3), FLIPR384 response. In kind it is cell-based. To be noted: 5 mM Aspartame (saturating concentration, the normalization reference); average of 2. The protocol: as §1

Assay [5] deals with T3, mouse olfactory receptor, mOREG (Mus musculus, UniProt Q920P2).
T3 construct: expressed in transfected cells; host or cells: HEK-293, co-transfected with OCNC1[C458W/E581M], OCNC2 and β1b
T3 sequence (Q920P2 1-313): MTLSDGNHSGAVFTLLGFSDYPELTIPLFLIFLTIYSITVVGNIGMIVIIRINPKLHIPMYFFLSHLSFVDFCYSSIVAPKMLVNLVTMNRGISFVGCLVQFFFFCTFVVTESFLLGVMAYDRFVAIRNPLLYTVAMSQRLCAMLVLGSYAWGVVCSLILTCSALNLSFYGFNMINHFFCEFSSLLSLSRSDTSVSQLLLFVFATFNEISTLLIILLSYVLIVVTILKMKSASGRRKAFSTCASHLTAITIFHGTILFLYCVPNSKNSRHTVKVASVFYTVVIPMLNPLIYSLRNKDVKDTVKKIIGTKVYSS
Nature of the assay: Calcium dye fluorescence microscopy, HEK-293 cells transfected with mOREG and human olfactory CNG channel subunits. In kind it is cell-based. The note with it: CNG channel dependent and mOREG dependent, FIG. 9. The protocol:
HEK-293 cells were transfected with OCNC1[C458W/E581FM], OCNC2, and β1band a mouse olfactory receptor, mOREG, that is activated by eugenol (Kajiya et al., 2001). Transfected cells were seeded onto multi-well plates. After 48 hours, cells were loaded with a calcium dye for one hour, then washed, and their response to eugenol stimulation was monitored by fluorescence microscopy.

In assay [6] the test system is activity-enhanced human olfactory CNG channel. Nature of the assay: FLIPR calcium assay, HEK-293 cells stably expressing the activity-enhanced human olfactory CNG channel. Format: cell-based. To be noted: calcium dye; versus parent cells and wild type CNG subunits; FIG. 11. The protocol:
The HEK-293 cells that stably express the activity-enhanced human olfactory CNG channel were seeded into FLIPR imaging plates 24 hours prior to the experiment, on plates pre-coated with matrigel. The cells were loaded with a fluorescent calcium dye for one hour, washed and transferred to a FL]PR automated fluorometric plate reader with on-board fluidics. […] Therefore, the cell-based assay is amenable to high throughput applications, especially with respect to low affinity modulators.

The test system of assay [7] is human olfactory CNG channel. Nature of the assay: FLIPR calcium assay, HEK-293 cells stably expressing the human olfactory CNG channel. To be noted: calcium dye; versus parent cells; FIG. 11. In kind it is cell-based. The method, then: The HEK-293 cells that stably express the human olfactory CNG channel were seeded into FLIPR imaging plates 24 hours prior to the experiment, on plates pre-coated with matrigel. The cells were loaded with a fluorescent calcium dye for one hour, washed and transferred to a FLIPR automated fluorometric plate reader with on-board fluidics. […] Therefore, the cell-based assay is amenable to high throughput applications.

A further assay deals with HEK-293-oCNGC cells. Nature of the assay: Calcium influx in HEK-293-oCNGC cells on isoproterenol addition. Format: cell-based, human. The note with it: increasing concentrations; FIG. 12. The method, then: FIG. 12 contains the results of an experiment showing that increasing concentrations of isoproterenol induce calcium influx in HEK 293-oCNGC cells. Delta F/F corresponds to the maximum fluorescence value obtained after stimulation minus the minimum fluorescence measured before stimulation and normalized to the minimum fluorescence measure before stimulation.
as §2
This accumulation of CAMP induces oCNGC activation, which in turn causes extracellular calcium to flow inside the cells, resulting in a net increase of intracellular calcium concentration and a parallel increase of the fluorescence signal in the cells (FIG. 12).

Peptide text beside a SMILES is read from it.

Take `COC(=O)[C@H](Cc1ccccc1)NC(=O)[C@@H](N)CC(=O)O` [Aspartame] (H-Asp-Phe-OMe): the “% Activity CNG (Parental Cells)” value in assay [1] amounted to 0%. In addition, in assay [2], the “inhibition of isoproterenol-induced calcium influx after PTx pretreatment” value is “prevented the inhibition”. For the same molecule, the “effect on isoproterenol-induced calcium influx” value in assay [3] is “unaffected”. Further, the “% Max Activity CNG136” value in assay [4] amounted to 100%.

For the molecule `C=CCc1ccc(O)c(OC)c1` [Eugenol, eugenol], the fluorescence response result in assay [5] was “elicited fluorescence increases”.

As to `CC(C)NCC(O)c1ccc(O)c(O)c1` (centres unmarked) [isoproterenol], the values for the fluorescence response result in assay [6] and in assay [7] were “fluorescence similar to that observed with wild type CNG subunits” and “increased fluorescence”, respectively. For the same molecule, the calcium influx result in the assay with HEK-293-oCNGC cells was “in a dose-dependent manner”.
